Source: ChEMBL document CHEMBL3046205, “4-pyridyl carbonyl and related compounds as thrips lures: effectiveness for onion thrips and new zealand flower thrips in field experiments” (2007)

Key:
Assay type in all cases: functional
Thrips tabaci = assay: Thrips luring activity against female Thrips tabaci (onion thrips) assessed as ratio of thrips in baited traps to unbaited traps during field trapping study
Thrips obscuratus [1] = assay: Thrips luring activity against male New Zealand Thrips obscuratus (flower thrips) assessed as ratio of thrips in baited traps to unbaited traps during field trapping study
Thrips obscuratus [2] = assay: Thrips luring activity against female New Zealand Thrips obscuratus (flower thrips) assessed as ratio of thrips in baited traps to unbaited traps during field trapping study

SMILES | Ratio (Thrips tabaci) | Ratio (Thrips obscuratus [1]) | Ratio (Thrips obscuratus [2])
COC(=O)c1ccccc1N [METHYL ANTHRANILATE] | 3.5 | 22.1 | 28.3
CC/C=C\CC1C(=O)CCC1CC(=O)OC (stereo unspecified) [METHYL JASMONATE] | 0.7 | 0.9 | 0.8
OCCc1ccncc1 [4-(2-HYDROXYETHYL)PYRIDINE] | 1.3 | 0 | 0
CCOC(=O)C1CCNCC1 [ETHYL ISONIPECOTATE] | 4 | 0 | 0
CC(=O)c1ccncc1 [METHYL 4-PYRIDYLKETONE] | 7.6 | 10.3 | 0
CC(=O)c1ccccc1N [2-AMINOACETOPHENONE] | 6 | 26.7 | 20.7
CCOC(=O)c1ccncc1 [ETHYL ISONICOTINATE] | 30.8 | 28.5 | 31.6
COC(=O)c1ccncc1 [METHYL ISONICOTINATE] | 18.9 | 5.1 | 44.1
OCCc1ccccc1 [PHENYLETHYL ALCOHOL] | 3.8 | 9.5 | 9.8
CCOC(=O)c1cccnc1 [ETHYL NICOTINATE] | 3.1 | 84.8 | 157.6
CC(=O)/C=C/C1C(C)=CCCC1(C)C (stereo not drawn) [ALPHA-IONONE] | 1.3 | 0 | 1.8
O=Cc1ccncc1 [4-FORMYLPYRIDINE] | 1.6 | 4.9 | 7.9
CC(C)OC(=O)c1ccncc1 [ISOPROPYL ISONICOTINATE] | 8.8 | 0 | 9
CCOC(=O)c1ccccc1N [ETHYL ANTHRANILATE] | 1.1 | 0.6 | 1.6
c1cc(C2OCCO2)ccn1 [PYRIDINE, 4-(1,3-DIOXALAN-2-YL)] | 5.3 | 20.4 | 16.6
CCOC(=O)c1ccccc1O [ETHYL SALICYLATE] | 3 | 48.5 | 32.6

SMILES | Ratio (Thrips tabaci) | Ratio (Thrips obscuratus [1]) | Ratio (Thrips obscuratus [2])
COc1ccc(C=O)cc1 [ANISALDEHYDE] | 4 | 22.6 | 26.2
CCOC(=O)c1ccccn1 [ETHYL PICOLINATE] | 2.8 | 5.9 | 4.1
CCOC(=O)c1ccccc1 [ETHYL BENZOATE] | 2.1 | 24.8 | 35.4
N#Cc1ccncc1 [ISONICOTINONITRILE] | 2.4 | 19.9 | 0
CCOC(=O)c1ccnc(Cl)c1 [ETHYL-2-CHLOROPYRIDINE-4-CARBOXYLATE] | 1.7 | 19.3 | 15.1
CC/C=C\CC1=C(C)CCC1=O [CIS-JASMONE] | 1.2 | 24.5 | 42.1
CCCCCCCCCCOC(=O)c1ccncc1 [N-DECYL ISONICOTINATE] | 6.8 | 0 | 14.9
COC(=O)c1ccccc1 [METHYL BENZOATE] | 6.6 | 50.5 | 49.1
CCC(=O)c1ccncc1 [ETHYL 4-PYRIDYLKETONE] | 13.5 | 0 | 19.4
ClC(Cl)Cl [CHLOROFORM] | 1.1 | 10.1 | 0
O=Cc1ccccc1 [BENZALDEHYDE] | 4 | 3.6 | 5
O=Cc1ccccc1O [SALICYLADEHYDE] | 1.9 | 15.7 | 20.7
CC(=O)/C=C/C1=C(C)CCCC1(C)C [BETA-IONONE] | 2.6 | 3.8 | 1.8
COC(=O)c1ccccc1O [METHYL SALICYLATE] | 4 | 13.3 | 24.8
CCCCCCOC(=O)c1ccncc1 [ISONICOTINIC ACID HEXYL ESTER] | 1.2 | 0 | 0
CCCOC(=O)c1ccncc1 [N-PROPYL ISONICOTINATE] | 15.4 | 0 | 9
